Assay results as given in patent US10167276B2, “Compounds and methods for inhibiting JAK” (Dizal (Jiangsu) Pharmaceutical Co., Ltd., priority 2015, dated 2019).
pIC50: −log10 of the molar value.

System: STAT3 phosphorylation in NCI-H1975 cells
Test: Cellular pSTAT3 assay in NCI-H1975 cells
Format: cell-based
Conditions: Homo sapiens, 2 hours with compound
Description: NCI-H1975 cells were plated onto Costar #3701 96 or 384 well tissue-culture treated plates at 5,000 cells/well in 30 uL medium (RPMI, 10% FBS, supplemented with L-glutamine) and incubated overnight at 37° C. in 5% CO2. Phospho STAT3 signal was quantitated utilizing Cell Signaling Technology #7146B Pathscan […] STAT3 antibody pair kit, following manufacturer's instructions.
Cells were dosed with compound and incubated at 37° C. in 5% CO2 for 2 hours, after which medium and compound were aspirated and cells lysed with 35 uL cold 1×Cell Signaling Lysis buffer and chilled at 4° C. for 1-2 hours. Lysate was incubated on STAT3 capture plates at 4° C. overnight, washed 3× with Tris-Buffered Saline with 0.05% Tween® 20 (TBST), then […] STAT3 detection antibody was applied for 2 hours. Following washing with TBST (3×), HRP-secondary antibody was applied for 2 hours. After additional washing, signal was detected using TMB and Stop solution and read at 450 nm using Tecan Infinite M100.

| SMILES | pIC50 |
| --- | --- |
| CCOc1nn(C)cc1Nc1ncc(C)c(-c2c[nH]c3c(NC(=O)[C@@H](C)N4CCN(C)C[C@H]4C)cccc23)n1 [Example 23, (2R)-2-[(2R)-2,4-dimethylpiperazin-1-yl]-N-(3-{2-[(3-ethoxy-1-methyl-1H-pyrazol-4-yl)amino]-5-methylpyrimidin-4-yl}-1H-indol-7-yl)propanamide] | 6.39 |
| CCOc1nn(C)cc1Nc1ncc(C)c(-c2c[nH]c3c(NC(=O)[C@@H](C)N4CCN(C)[C@H](C)C4)cccc23)n1 [Example 24, (2R)-2-[(3R)-3,4-dimethylpiperazin-1-yl]-N-(3-{2-[(3-ethoxy-1-methyl-1H-pyrazol-4-yl)amino]-5-methylpyrimidin-4-yl}-1H-indol-7-yl)propanamide] | 6.43 |
| COc1nn(C)cc1Nc1ncc(F)c(-c2c[nH]c3c(NC(=O)[C@@H](C)N4CCN(C)CC4)cccc23)n1 [Example 25] | 6.94 |
| COc1nn(C)cc1Nc1nccc(-c2c[nH]c3c(NC(=O)[C@@H](C)N4CCN(C)[C@@H](C)C4)cccc23)n1 [Example 26, (2R)-2-[(3S)-3,4-dimethylpiperazin-1-yl]-N-(3-{2-[(3-methoxy-1-methyl-1H-pyrazol-4-yl)amino]pyrimidin-4-yl}-1H-indol-7-yl)propanamide] | 6.59 |
| COCCN1CCN([C@H](C)C(=O)Nc2cccc3c(-c4ccnc(Nc5cn(C)nc5OC)n4)c[nH]c23)CC1 [Example 27, (2R)-2-[4-(2-methoxyethyl)piperazin-1-yl]-N-(3-{2-[(3-methoxy-1-methyl-1H-pyrazol-4-yl)amino]pyrimidin-4-yl}-1H-indol-7-yl)propanamide] | 6.22 |
| CCN1CCN([C@H](C)C(=O)Nc2cccc3c(-c4ccnc(Nc5cn(C)nc5OC)n4)c[nH]c23)CC1 [Example 28, (2R)-2-(4-ethylpiperazin-1-yl)-N-(3-{2-[(3-methoxy-1-methyl-1H-pyrazol-4-yl)amino]pyrimidin-4-yl}-1H-indol-7-yl)propanamide] | 7.00 |
| COc1nn(C)cc1Nc1nccc(-c2c[nH]c3c(NC(=O)[C@@H](C)N4CCN(C)C[C@H]4C)cccc23)n1 [Example 29, (2R)-2-[(2R)-2,4-dimethylpiperazin-1-yl]-N-(3-{2-[(3-methoxy-1-methyl-1H-pyrazol-4-yl)amino]pyrimidin-4-yl}-1H-indol-7-yl)propanamide] | 6.64 |
| COc1nn(C)cc1Nc1nccc(-c2c[nH]c3c(NC(=O)[C@@H](C)N4CCN(C)[C@H](C)C4)cccc23)n1 [Example 30, (2R)-2-[(3R)-3,4-dimethylpiperazin-1-yl]-N-(3-{2-[(3-methoxy-1-methyl-1H-pyrazol-4-yl)amino]pyrimidin-4-yl}-1H-indol-7-yl)propanamide] | 6.44 |
| CCOc1nn(C)cc1Nc1ncc(C)c(-c2c[nH]c3c(NC(=O)[C@@H](C)N4CCN(C)[C@@H](C)C4)cccc23)n1 [Example 31a, (2R)-2-[(3S)-3,4-dimethylpiperazin-1-yl]-N-(3-{2-[(3-ethoxy-1-methyl-1H-pyrazol-4-yl)amino]-5-methylpyrimidin-4-yl}-1H-indol-7-yl)propanamide] | 6.82 |
| CCOc1nn(C)cc1Nc1ncc(C)c(-c2c[nH]c3c(NC(=O)[C@H](C)N4CCN(C)[C@@H](C)C4)cccc23)n1 [Example 31b, (2S)-2-[(3S)-3,4-dimethylpiperazin-1-yl]-N-(3-{2-[(3-ethoxy-1-methyl-1H-pyrazol-4-yl)amino]-5-methylpyrimidin-4-yl}-1H-indol-7-yl)propanamide] | 6.48 |
| COc1nn(C)cc1Nc1ncc(C)c(-c2c[nH]c3c(NC(=O)[C@H](C)N4CCN(C)CC4)cccc23)n1 [Example 33, (2S)-N-{3-[2-[(3-methoxy-1-methyl-1H-pyrazol-4-yl)amino]-5-methylpyrimidin-4-yl}-1H-indol-7-yl)-2-(4-methylpiperaizn-1-yl)propanamide] | 6.51 |
| COc1nn(C)cc1Nc1ncc(C)c(-c2c[nH]c3c(NC(=O)[C@@H](C)N4CCN(C)CC4)cccc23)n1 [Example 34, (2R)-N-(3-{2-[(3-Methoxy-1-methyl-1H-pyrazol-4-yl)amino]-5-methylpyrimidin-4-yl}-1H-indol-7-yl)-2-(4-methylpiperazin-1-yl)propanamide] | 6.89 |
| CCOc1nn(C)cc1Nc1ncc(C)c(-c2c[nH]c3c(NC(=O)[C@@H](C)N4CCN(C)CC4)cccc23)n1 [Example 35, (2R)-N-(3-{2-[(3-ethoxy-1-methyl-1H-pyrazol-4-yl)amino]-5-methylpyrimidin-4-yl}-1H-indol-7-yl)-2-(4-methylpiperazin-1-yl)propanamide] | 6.82 |
| COc1nn(C)cc1Nc1ncc(Cl)c(-c2c[nH]c3c(NC(=O)[C@@H](C)N4CCN(C)CC4)cccc23)n1 [Example 36, (2R)-N-(3-{5-chloro-2-[(3-methoxy-1-methyl-1H-pyrazol-4-yl)amino]pyrimidin-4-yl}-1H-indol-7-yl)-2-(4-methylpiperazin-1-yl)propanamide] | 7.24 |
| COc1nn(C)cc1Nc1ncc(Br)c(-c2c[nH]c3c(NC(=O)[C@@H](C)N4CCN(C)CC4)cccc23)n1 [Example 37, (2R)-N-(3-{5-bromo-2-[(3-methoxy-1-methyl-1H-pyrazol-4-yl)amino]pyrimidin-4-yl}-1H-indol-7-yl)-2-(4-methylpiperazin-1-yl)propanamide] | 7.03 |
| COc1nn(C)cc1Nc1ncc(C)c(-c2c[nH]c3c(NC(=O)[C@@H](C)N4CCN(C)C[C@H]4C)cccc23)n1 [Example 38, (2R)-2-[(2R)-2,4-dimethylpiperazin-1-yl]-N-(3-{2-[(3-methoxy-1-methyl-1H-pyrazol-4-yl)amino]-5-methylpyrimidin-4-yl}-1H-indol-7-yl)propanamide] | 6.97 |
| CCOc1nn(C)cc1Nc1ncc(F)c(-c2c[nH]c3c(NC(=O)[C@@H](C)N4CCN(C)CC4)cccc23)n1 [Example 39, (2R)-N-(3-{2-[(3-ethoxy-1-methyl-1H-pyrazol-4-yl)amino]-5-fluoropyrimidin-4-yl}-1H-indol-7-yl)-2-(4-methylpiperazin-1-yl)propanamide] | 6.72 |
| CCOc1nn(C)cc1Nc1ncc(Cl)c(-c2c[nH]c3c(NC(=O)[C@@H](C)N4CCN(C)CC4)cccc23)n1 [Example 40, (2R)-N-(3-{5-chloro-2-[(3-ethoxy-1-methyl-1H-pyrazol-4-yl)amino]pyrimidin-4-yl}-1H-indol-7-yl)-2-(4-methylpiperazin-1-yl)propanamide] | 6.80 |
| Cc1cnc(Nc2cn(C)nc2C)nc1-c1c[nH]c2c(NC(=O)[C@@H](C)N3CCN(C)CC3)cccc12 [Example 41, (2R)-N-(3-{2-[(1,3-dimethyl-1H-pyrazol-4-yl)amino]-5-methylpyrimidin-4-yl}-1H-indol-7-yl)-2-(4-methylpiperazin-1-yl)propanamide] | 7.03 |
| Cc1cnc(Nc2cn(C)nc2C)nc1-c1c[nH]c2c(NC(=O)[C@H](C)N3CCN(C)CC3)cccc12 [Example 42, (2S)-N-(3-{2-[(1,3-dimethyl-1H-pyrazol-4-yl)amino]-5-methylpyrimidin-4-yl}-1H-indol-7-yl)-2-(4-methylpiperazin-1-yl)propanamide] | 6.76 |
| CC[C@@H](C(=O)Nc1cccc2c(-c3nc(Nc4cn(C)nc4OC)ncc3C)c[nH]c12)N1CCN(C)CC1 [Example 43, (2S)-N-(3-{2-[(3-Methoxy-1-methyl-1H-pyrazol-4-yl)amino]-5-methylpyrimidin-4-yl}-1H-indol-7-yl)-2-(4-methylpiperazin-1-yl)butanamide] | 6.75 |
| CC[C@H](C(=O)Nc1cccc2c(-c3nc(Nc4cn(C)nc4OC)ncc3C)c[nH]c12)N1CCN(C)CC1 [Example 44, (2R)-N-(3-{2-[(3-Methoxy-1-methyl-1H-pyrazol-4-yl)amino]-5-methylpyrimidin-4-yl}-1H-indol-7-yl)-2-(4-methylpiperazin-1-yl)butanamide] | 7.24 |
| COC[C@H](C(=O)Nc1cccc2c(-c3nc(Nc4cn(C)nc4OC)ncc3C)c[nH]c12)N1CCN(C)CC1 [Example 45, (2R)-3-methoxy-N-(3-{2-[(3-methoxy-1-methyl-1H-pyrazol-4-yl)amino]-5-methylpyrimidin-4-yl}-1H-indol-7-yl)-2-(4-methylpiperazin-1-yl)propanamide] | 7.22 |
| COC[C@@H](C(=O)Nc1cccc2c(-c3nc(Nc4cn(C)nc4OC)ncc3C)c[nH]c12)N1CCN(C)CC1 [Example 46, (2S)-3-methoxy-N-(3-{2-[(3-methoxy-1-methyl-1H-pyrazol-4-yl)amino]-5-methylpyrimidin-4-yl}-1H-indol-7-yl)-2-(4-methylpiperazin-1-yl)propanamide] | 5.89 |
| CC[C@H](C(=O)Nc1cccc2c(-c3ccnc(Nc4cn(C)nc4OC)n3)c[nH]c12)N1CCN(C)CC1 [Example 47, (2R)-N-(3-{2-[(3-Methoxy-1-methyl-1H-pyrazol-4-yl)amino]pyrimidin-4-yl}-1H-indol-7-yl)-2-(4-methylpiperazin-1-yl)butanamide] | 6.87 |
| CC[C@@H](C(=O)Nc1cccc2c(-c3ccnc(Nc4cn(C)nc4OC)n3)c[nH]c12)N1CCN(C)CC1 [Example 48, (2S)-N-(3-{2-[(3-Methoxy-1-methyl-1H-pyrazol-4-yl)amino]pyrimidin-4-yl}-1H-indol-7-yl)-2-(4-methylpiperazin-1-yl)butanamide] | 6.06 |
| CC[C@H](C(=O)Nc1cccc2c(-c3nc(Nc4cn(C)nc4C)ncc3F)c[nH]c12)N1CCN(C)CC1 [Example 49, (2R)-N-(3-{2-[(1,3-dimethyl-1H-pyrazol-4-yl)amino]-5-fluoropyrimidin-4-yl}-1H-indol-7-yl)-2-(4-methylpiperazin-1-yl)butanamide] | 7.12 |
